Data from publication PMC6348446 (Journal of Medicinal Chemistry, 2018).
Like-named read-outs stand apart in the source and are kept apart here.

Tests used:
BRD9 = biological target: T1, BRD9 (Homo sapiens, UniProt Q9H8M2); test: Western blot of BRD9 levels in HeLa cells after compound treatment; type: cell-based; details: 1 μM compound; for remaining activity at 1 µM: Table 2, % of total protein remaining relative to 0.1% DMSO vehicle, HeLa cell lysates; for BRD9 degradation: HeLa cells
T1 construct: Western blot analysis of BRD9 and BRD7 levels after treatment of HeLa cells; endogenous in cells; host or cells: HeLa
T1 sequence (Q9H8M2 1-597): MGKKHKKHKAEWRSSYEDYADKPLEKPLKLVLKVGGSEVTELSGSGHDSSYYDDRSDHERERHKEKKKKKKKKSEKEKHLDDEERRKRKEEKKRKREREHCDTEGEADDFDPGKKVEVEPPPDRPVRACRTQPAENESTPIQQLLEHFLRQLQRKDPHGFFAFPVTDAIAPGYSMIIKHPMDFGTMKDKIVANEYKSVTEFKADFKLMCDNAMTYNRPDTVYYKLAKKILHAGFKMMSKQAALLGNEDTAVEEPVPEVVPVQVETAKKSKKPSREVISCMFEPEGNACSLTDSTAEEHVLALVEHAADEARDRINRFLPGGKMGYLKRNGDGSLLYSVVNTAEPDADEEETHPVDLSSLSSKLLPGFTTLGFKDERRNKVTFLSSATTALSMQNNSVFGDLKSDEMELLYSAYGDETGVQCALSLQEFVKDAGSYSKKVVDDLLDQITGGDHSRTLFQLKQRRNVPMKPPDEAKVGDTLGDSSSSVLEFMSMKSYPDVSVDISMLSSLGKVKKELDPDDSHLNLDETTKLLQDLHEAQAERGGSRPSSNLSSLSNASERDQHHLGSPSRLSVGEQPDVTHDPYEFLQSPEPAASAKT

Plasma stability, mouse = type: in vitro ADME; details: 10 µM compound, 37 °C; for half-life at 10 µM: mouse, plasma, pH 7.4, read-out: Plasma stability T 1/2, Mouse
Experimental: Test compound (10 µM) was incubated in pre-warmed plasma at 37 ᵒC (that is buffered to pH 7.4 in ratio of 70:30 plasma to buffer). Immediately, at time zero, then at 30, 60, 120, and 180 min, a 50 µL aliquot of the incubation mixture was removed and mixed with 200 µL acetonitrile containing Donepezil as the internal standard (50 ng/ml) to stop the reaction. The samples were centrifuged to sediment the precipitated protein and the plates then sealed prior to UPLC-MS/MS analysis using a Xevo TQ-S Micro (Waters Corporation, USA).
XLfit (IDBS, UK) was used to calculate the exponential decay and consequently the rate constant (k) from the ratio of peak area of test compound to internal standard at each time point. The half-life was calculated for each test compound from the rate by using the […]
Parallel Artificial Membrane Permeability Assay (PAMPA)
PAMPA was performed using a 96-well pre-coated BD Gentest™ PAMPA plate (BD Biosciences, U.K.). Each well was divided into two chambers; donor and acceptor, separated by a lipid-oil-lipid tri-layer constructed in a porous filter. The effective permeability, Pe, of the compound was measured at pH 7.4. Stock solutions (5 mM) of the compound were prepared in DMSO. The compound was then further diluted to 10 µM in phosphate buffered […]
saline at pH 7.4. […] The compound […]
dissolved in phosphate buffered saline was then added to the donor side of the membrane and phosphate buffered saline without compound was added to the acceptor side. The PAMPA plate was left at room temperature for 5 h. After which time, an aliquot (100 µL) was then

COc1cc(-c2cn(C)c(=O)c3cnccc23)cc(OC)c1CN1CCN(CCOCCOCC(=O)N[C@H](C(=O)N2C[C@H](O)C[C@H]2C(=O)NCc2ccc(-c3scnc3C)cc2)C(C)(C)C)CC1 [Compound 5, (2S,4R)-1-((S)-2-(2-(2-(2-(4-(2,6-Dimethoxy-4-(2-methyl-1-oxo-1,2-dihydro-2,7-naphthyridin-4-yl)benzyl)piperazin-1-yl)ethoxy)ethoxy)acetamido)-3,3-dimethylbutanoyl)-4-hydroxy-N-(4-(4-methylthiazol-5-yl)benzyl)pyrrolidine-2-carboxamide]
remaining activity at 1 µM (BRD9; 16 h, read-out: BRD9 16 h (%)): 89%
BRD9 degradation (BRD9; 4 h): at most 20%
BRD9 degradation (BRD9; 16 h): ≤ 30%

COc1cc(-c2cn(C)c(=O)c3cnccc23)cc(OC)c1CN1CCN(CCOCCOCCOc2cc(-c3scnc3C)ccc2CNC(=O)[C@@H]2C[C@@H](O)CN2C(=O)[C@@H](NC(=O)C2(F)CC2)C(C)(C)C)CC1 [Compound 26, (2S,4R)-N-(2-(2-(2-(2-(4-(2,6-Dimethoxy-4-(2-methyl-1-oxo-1,2-dihydro-2,7-naphthyridin-4-yl)benzyl)piperazin-1-yl)ethoxy)ethoxy)ethoxy)-4-(4-methylthiazol-5-yl)benzyl)-1-((S)-2-(1-fluorocyclopropane-1-carboxamido)-3,3-dimethylbutanoyl)-4-hydroxypyrrolidine-2-carboxamide]
remaining activity at 1 µM (BRD9; 4 h, read-out: BRD9 4 h (%)): 14%

COc1cc(-c2cn(C)c(=O)c3cnccc23)cc(OC)c1CN1CCN(CCCCCOc2cc(-c3scnc3C)ccc2CNC(=O)[C@@H]2C[C@@H](O)CN2C(=O)[C@@H](NC(=O)C2(F)CC2)C(C)(C)C)CC1 [Compound 51, (2S,4R)-N-(2-((5-(4-(2,6-Dimethoxy-4-(2-methyl-1-oxo-1,2-dihydro-2,7-naphthyridin-4-yl)benzyl)piperazin-1-yl)pentyl)oxy)-4-(4-methylthiazol-5-yl)benzyl)-1-((S)-2-(1-fluorocyclopropane-1-carboxamido)-3,3-dimethylbutanoyl)-4-hydroxypyrrolidine-2-carboxamide]
Plasma stability T 1/2, Mouse (Plasma stability, mouse): high stabilities
half-life at 10 µM (Plasma stability, mouse): > 3 h

COc1cc(-c2cn(C)c(=O)c3cnccc23)cc(OC)c1CN1CCN(CCCCCOc2cc(-c3scnc3C)ccc2CNC(=O)[C@@H]2C[C@H](O)CN2C(=O)[C@@H](NC(=O)C2(F)CC2)C(C)(C)C)CC1 [cisVZ185]
half-life at 10 µM (Plasma stability, mouse): > 3 h
